In this assay the test system is CaV1.2. Kind of assay: Whole-cell patch clamp of CaV1.2 variants in HEK 293T/17 cells. It is filed as cell-based, rat. Conditions: interleaved WT, mean±SEM; for Imax Ba2+ (peak current density) / Imax Ba2+ (r300): 10 mM Ba^2+; for Imax Ba2+ (peak current density): 0 mV; for Imax Ca2+ (peak current density) / Imax Ca2+ (r300): 10 mM Ca^2+; for Imax Ca2+ (peak current density): +20 mV; for VDI300: 1-(Ba300/Bamax); for netCDI300: 1-(Ca300/Camax)/(Ba300/Bamax); for Imax Ba2+ (r300) / Imax Ca2+ (r300): fraction of maximal current remaining after 300 ms. On the procedure:
HEK 293T/17 cells (ATCC) were maintained as previously described ([15], [53]). For electrophysiology, Lipofectamine 2000 (Invitrogene) or JetPrime (Polyplus Transfection) was used to transiently transfect cells with indicated plasmid DNAs in 35 mm dishes. For biochemistry experiments, transient transfection of HEK 293T/17 cells in […] dishes was achieved using either JetPrime or, as previously described ([15], [53]), the calcium phosphate method. Cells were cotransfected with plasmids encoding the pore-forming α11.2 subunit N-terminally tagged with eCFP ([15], [53]) or mCherry ([54]) plus pGWIH-based plasmids encoding the auxiliary subunits rat β2A ([55]) and rabbit α2δ-1 ([56]) as previously described ([15], [53]). For all transfections, equimolar ratio of 1:1:1 was used for CaV1.2 channel subunits and later further optimized (JetPrime) for CaM (at ratio of 1:1:1:0.5 for α11.2:β2A:α2δ−1:CaM). Rat brain α11.2 (GenBank ID: M67515.1) N-terminally fused to eCFP was utilized as previously described ([15]). The point mutations in plasmids encoding single-residue I1654A, Y1657D (this report), and K1662E exchanges in α11.2 were generated via QuikChange II as previously described ([15], [53]) using N-terminally eCFP ([15], [53]) or mCherry tagged ([54]) rat brain α11.2 plasmid template DNAs. We studied CDI using mCherry-tagged α11.2 subunit coexpressed with the other, untagged CaV1.2 subunits and WT CaM or the calmodulin 34 mutant CaM34 (kindly provided by JP Adelman, ([8])). For some biochemical experiments shown in Fig. S2, YFP-tagged CaM was used ([32]).
Macroscopic Ba^2+- (IBa) and Ca^2+ currents (ICa) of CaV1.2 L-type Ca^2+ channels were obtained in the whole-cell configuration using external bath solution containing (in mM) 134 N-methyl-D-glucamine, 10 BaCl2 (for CDI, 10 CaCl2), 1 MgCl2, 10 Hepes, and 10 glucose with an adjusted pH of 7.4 (Cs-OH) and an osmolarity of 300 to 310 mOsm (sucrose). Intracellular pipette solution contained (in mM) 125 Cs-MeSO3, 5 CsCl, 10 EGTA, 10 Hepes, 1 MgCl2, 4 Mg-ATP, and pH 7.3 (CsOH), mOsm 290 to 300 (sucrose). Cells were clamped at a holding potential of -80 mV and depolarized for 900 ms to a series of activating potentials, from −60 mV to +50 mV (or +80 mV for Ca^2+ currents), in increments of 10 mV at an interval of 0.033 Hz. The series resistance and the cell capacitance were directly taken from the Amplifier (Axopatch 200B, Molecular Device) and compensated to ∼40%. Data were sampled at 10 kHz and lowpass filtered at 2 kHz. Leak subtracted raw data were analyzed with Pclamp10 and GraphPad Prism IX software. All recordings were performed at room temperature (RT).
Table S1. HEK 293T/17 cells were transiently transfected with eCFP-tagged rat CaV1.2 (WT versus I1654A and K1662E or versus Y1657D) plus α2δ1 and β2a and whole cell current recorded (see Fig. 3 for more details).
Panel A. Peak current density from I/V curves of whole-cell recordings. Imax values were determined at +20 mV for Ca2+ and 0 mV for Ba2+.
Panel B. r300 values and quantification of CDI and VDI. Whole-cell currents remaining after 300 ms of depolarization (r300) are given as fraction of maximal currents based on values in A. Net CDI was calculated as the ratiometric value net 1-(Ca300/Camax)/(Ba300/Bamax) and VDI as 1- […]
For each panel: Top: Analysis of interleaved recordings of CaV1.2 WT versus I1654A and K1662E IQ- mutants (one-way ANOVA with a Bonferroni post-hoc test; *p<0.05, **p<0.01 and ***p<0.001 and ****p<0.0001). Bottom: Analysis of interleaved recordings of CaV1.2 WT versus Y1657D IQ-mutant CaV1.2 (unpaired T-Test, *p<0.05 and ****p<0.0001). […]
mean±SEM and numbers in parentheses (n) are independent experiments.
IQ-variant ImaxCa2+(pA/pF) ImaxBa2+(pA/pF) p-value

Take “CaV1.2: WT rat brain α11.2 with α2δ1 and β2A expressed in HEK 293T/17 cells”: under “I1654A, K1662E”, the “Imax Ba2+ (peak current density)” value turned out to be 46.7±9.1 pA/pF, the “Imax Ca2+ (peak current density)” value came out at 18.3±4.2 pA/pF, the VDI300 is reported as 0.19±0.02 and the netCDI300 is listed as 0.59±0.04. Moreover, where the note is “I1654A, K1662E”, the “Imax Ba2+ (r300)” value is 0.81±0.02 and the “Imax Ca2+ (r300)” value was 0.33±0.03. Further, under “Y1657D”, the “Imax Ba2+ (peak current density)” value was 21.8±4 pA/pF, the “Imax Ca2+ (peak current density)” value turned out to be 16.4±2.1 pA/pF, the VDI300 came out at 0.17±0.02 and the netCDI300 amounted to 0.61±0.03. Besides, where the note is “Y1657D”, the “Imax Ba2+ (r300)” value is 0.83±0.02 and the “Imax Ca2+ (r300)” value is 0.32±0.03.

For the origin of these results see PMC9764201, “Half-calcified calmodulin promotes basal activity and inactivation of the L-type calcium channel CaV1.2” (The Journal of Biological Chemistry, 2022).
